PubChem BioAssay AID256 (DTP/NCI, 2004)
Several values for one entry are separate records, joined by “and”; a condition that tells them apart may be missing. Equal entries are not always repeated. Inconclusive results and toxic doses are left out. The calls were made as follows: active = survival T/C of 150% or more; inactive = T/C below 125% in these data.

Test system: CD2F1 mice, L1210 leukemia ip, survival T/C
Test: NCI In Vivo Anticancer Drug Screen. Data for tumor model L1210 Leukemia (intraperitoneal) in CD2F1 (CDF1) mice
Settings: endpoint: mean survival time, higher = longer survival
How it was run: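 Tumor-bearing mice (transplanted tumor) were split into treated and vehicle control groups, and the measured endpoint of each treated group was divided by that of its vehicle controls.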

[1] = dose: 50.0 mg/kg/injection, schedule: Q04DX003 (ip), vehicle: saline with Tween-80
[2] = dose: 100.0 mg/kg/injection, schedule: Q01DX001 (ip), vehicle: saline with Tween-80
[3] = dose: 100.0 mg/kg/injection, schedule: Q04DX003 (ip), vehicle: saline with Tween-80
[4] = dose: 100.0 mg/kg/injection, schedule: Q01DX009 (ip), vehicle: saline with Tween-80
[5] = dose: 200.0 mg/kg/injection, schedule: Q01DX009 (ip), vehicle: saline with Tween-80
[6] = dose: 200.0 mg/kg/injection, schedule: Q04DX003 (ip), vehicle: saline with Tween-80

Measured: T/C

CC(=O)N(CCCCCCN(N=O)C(C)=O)N=O
inactive: dose: 75.0 mg/kg/injection, schedule: Q01DX001 (ip), vehicle: saline 110 % of control | dose: 150.0 mg/kg/injection, schedule: Q01DX001 (ip), vehicle: saline 122 % of control | dose: 300.0 mg/kg/injection, schedule: Q01DX001 (ip), vehicle: saline 116 % of control

O=S(=O)(F)c1ccc(O)cc1
inactive: dose: 25.0 mg/kg/injection, schedule: Q01DX009 (ip), vehicle: saline + alcohol 93 % of control | dose: 25.0 mg/kg/injection, schedule: Q04DX003 (ip), vehicle: saline with Tween-80 93 % of control | dose: 50.0 mg/kg/injection, schedule: Q01DX001 (ip), vehicle: saline with Tween-80 96 % of control | dose: 50.0 mg/kg/injection, schedule: Q01DX009 (ip), vehicle: saline + alcohol 95 % of control and 100 % of control | [1] 93 % of control | [2] 95 % of control | dose: 100.0 mg/kg/injection, schedule: Q01DX009 (ip), vehicle: saline + alcohol 93 % of control and 95 % of control | dose: 100.0 mg/kg/injection, schedule: Q04DX002 (ip), vehicle: saline with Tween-80 103 % of control and 107 % of control | [3] 101 % of control

CN(Cc1ccccc1)N=Nc1ccc(C#N)cc1
inactive: [4] 104 % of control | [5] 112 % of control | dose: 400.0 mg/kg/injection, schedule: Q01DX009 (ip), vehicle: saline with Tween-80 112 % of control

CC(=O)COc1cc(C)cc(C)c1
inactive: [2] 104 % of control | dose: 200.0 mg/kg/injection, schedule: Q01DX001 (ip), vehicle: saline with Tween-80 95 % of control | dose: 400.0 mg/kg/injection, schedule: Q01DX001 (ip), vehicle: saline with Tween-80 101 % of control

O=C(O)c1ccc(P(=O)(O)O)cc1[N+](=O)[O-]
inactive: dose: 25.0 mg/kg/injection, schedule: Q01DX009 (ip), vehicle: saline 91 % of control | dose: 50.0 mg/kg/injection, schedule: Q01DX009 (ip), vehicle: saline 86 % of control

Cc1cn(C2CC3OP(N(C)C)OCC3O2)c(=O)[nH]c1=O (stereo not given)
inactive: dose: 12.5 mg/kg/injection, schedule: Q01DX005 (ip), vehicle: water 100 % of control | dose: 25.0 mg/kg/injection, schedule: Q01DX005 (ip), vehicle: water 101 % of control | dose: 50.0 mg/kg/injection, schedule: Q01DX005 (ip), vehicle: water 98 % of control | dose: 100.0 mg/kg/injection, schedule: Q01DX005 (ip), vehicle: water 105 % of control | dose: 200.0 mg/kg/injection, schedule: Q01DX005 (ip), vehicle: water 101 % of control

O=C(CCCCCC(=O)OCCBr)OCCBr
inactive: dose: 50.0 mg/kg/injection, schedule: Q04DX003 (ip), vehicle: saline sonified 102 % of control | dose: 100.0 mg/kg/injection, schedule: Q04DX003 (ip), vehicle: saline sonified 100 % of control | dose: 200.0 mg/kg/injection, schedule: Q04DX003 (ip), vehicle: saline sonified 93 % of control

CCCCNC(=O)C1C=C2c3cccc4c3C(CN4)CC2N(C)C1 (stereo not given)
inactive: [1] 88 % of control | [3] 91 % of control | [6] 96 % of control

O=C(NCCBr)Nc1ccccc1
inactive: dose: 12.5 mg/kg/injection, schedule: Q04DX002 (ip), vehicle: Klucel (hydroxypropylcellulose) (HPC) 92 % of control | dose: 25.0 mg/kg/injection, schedule: Q04DX002 (ip), vehicle: Klucel (hydroxypropylcellulose) (HPC) 92 % of control | dose: 50.0 mg/kg/injection, schedule: Q04DX002 (ip), vehicle: Klucel (hydroxypropylcellulose) (HPC) 96 % of control

c1ccc2c(c1)Cn1c-2nc2ccccc21
inactive: [3] 97 % of control | [6] 97 % of control | dose: 400.0 mg/kg/injection, schedule: Q04DX003 (ip), vehicle: saline with Tween-80 94 % of control

OC1(C(Cl)(Cl)Cl)CCCCC1
inactive: dose: 100.0 mg/kg/injection, schedule: Q01DX009 (ip), vehicle: other 101 % of control | dose: 200.0 mg/kg/injection, schedule: Q01DX009 (ip), vehicle: other 103 % of control | dose: 400.0 mg/kg/injection, schedule: Q01DX009 (ip), vehicle: other 106 % of control

O=C1CCN(Cc2ccccc2)C(=O)N1
inactive: dose: 50.0 mg/kg/injection, schedule: Q01DX009 (ip), vehicle: saline with Tween-80 97 % of control | [4] 98 % of control | [3] 106 % of control | [5] 98 % of control | [6] 97 % of control
